# pKi: −log10 of the molar value. Like-named read-outs stand apart in the source and are kept apart here.
# Columns and labels:
# [1] = system: mouse obesity model induced by high fat diet; test: Mouse obesity model induced by high fat diet; format: in vivo, C57BL/6Ntaconic mice; settings: oral once a day, high-fat-diet obese mice
# Experimental: The effect of melanocortin-4 receptor agonists on obesity was evaluated by using the mouse obesity model induced with a high fat diet.
# Five-week-old male C57BL/6Ntaconic mice were fed with a 60 kcal % fat diet (D12492, Research Diet.) for 15 weeks to induce obesity. The compound of Example 1, the compounds of the comparative examples (A95 and A96), and sibutramine as a positive control were prepared in distilled water and orally administered to […] mouse obesity models induced by a high-fat diet once a day from day 1 to day 16. From Day 1 to Day 16, the body weight was measured once a day, the dietary intake was measured five times a week, and drinking water intake was measured twice a week. Blood glucose and glycated hemoglobin were measured on Day 15, and all animals were sacrificed on Day 17. Blood was collected through the abdominal vena cava, and the liver and epididymal adipose tissues were removed and weighed. The collected blood was placed in a heparin tube and centrifuged to separate plasma, and then plasma biochemical analysis was performed.
# [2] = Pharmacokinetic profile in mice, plasma and brain, oral administration; format: in vivo, C57BL6 mice; settings: 10 mg/kg; for AUC(0-inf) / half-life / Cmax / Kp: C57BL6, mouse; for Kp: brain/plasma, read-out: Brain to Plasma AUC ratio, mean ratio
# Experimental: In order to investigate the pharmacokinetics (PK) properties of the compound of Example 1 and the compounds of comparative examples, the following experiment was performed. In order to perform the PK test for the compound of Example 1 and the compounds of the comparative examples ([…]), about 7 week-old C57BL6 mice were prepared, 12 individuals were assigned per administered substance, separated into groups, and starved for oral administration. On the day of administration, a drug solution was prepared at a concentration of 1 mg/mL by using distilled water (DW) as a vehicle and was orally administered at […] body weight of each individual, and the final dose was 10 mg/kg. At 1, 3, 8, and 24 hours after the administration, whole blood was collected through cardiac blood collection from each of the 3 individuals in each group and then placed in a heparin tube to prevent coagulation. Thereafter, the cerebrum of each individual was collected and placed in an EP tube, the weight of the tissue was measured, and frozen storage was performed at -20° C. […] In this case, AN included an internal standard. […] After 0.5 μL of the supernatant obtained after deproteinization was injected into LC-MS/MS, peak areas of the compounds of the example and the comparative examples ([…]) were corrected with the peak areas of IS to obtain the peak response at each sample collection point and perform the concentration conversion by a calibration curve. The pharmacokinetic parameters (Cmax, AUCinf, t1/2, and the like) were calculated by a noncompartmental analysis method by using WinNonlin 8.1 for the values of the blood concentration with time for each administration group. The pharmacokinetic characteristics of each compound were compared by comparing exposure, half-life changes, and the like for each drug administration group, and the resultant values are shown in Tables 5 and 6.
# MC4R = MC4R (Homo sapiens, UniProt P32245); test: Binding affinity, 125I-NDP-α-MSH displacement on membranes; parameters: expressed in transfected cells; host or cells: HEK-293 cells; membranes collected; settings: HEK-293 MC4R membrane, 0.02 nM 125I-NDP-α-MSH
# Chain of MC4R (P32245 whole entry): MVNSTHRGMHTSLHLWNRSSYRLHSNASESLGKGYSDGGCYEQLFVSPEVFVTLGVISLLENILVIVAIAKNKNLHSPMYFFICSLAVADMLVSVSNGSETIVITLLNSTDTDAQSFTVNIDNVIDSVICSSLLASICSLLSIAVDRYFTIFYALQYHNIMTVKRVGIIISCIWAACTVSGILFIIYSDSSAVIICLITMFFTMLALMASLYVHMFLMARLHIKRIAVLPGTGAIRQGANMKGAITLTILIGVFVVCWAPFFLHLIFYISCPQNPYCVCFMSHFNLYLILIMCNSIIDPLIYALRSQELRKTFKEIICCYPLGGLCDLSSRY
# Excerpt: Five subtypes of melanocortin receptor (MCR) in vivo are known, and it is known that MC4R, which is Subtype 4, is involved in energy metabolism and weight control. Since other MCR subtypes are involved in the regulation of various functions in vivo such as skin pigmentation, energy homeostasis, and exocrine functions, securing selectivity for MC4R of MC4R agonist compounds is very important in preventing possible side effects in the future. Therefore, the receptor binding abilities of MC4R agonists for each MCR subtype were measured.
# After the CHO-K1 cell line expressing human recombinant MC1R and the HEK-293 cell lines expressing MC3R, MC4R and MCSR were established, membranes were collected from each cell line. In a 96-well cell culture plate, 3 μg MC1R membrane and 0.04 nM ^125I-NDP-α-MSH per well were reacted at 37° C. for two hours. 3 μg MC3R and MCSR membrane and 0.035 nM ^125I-NDP-α-MSH were reacted at 37° C. for one hour, and 3.12 μg MC4R membrane and 0.02 nM ^125I-NDP-α-MSH were reacted at 37° C. for two hours. At this time, 25 mM HEPES-KOH adsorption buffer (pH 7.0) containing MCR agonist diluted at each step concentration was added to each well and reacted. The reacted solution was transferred to a filter and washed with an adsorption buffer, and then radioactivity was measured. The value excluding the non-specific binding amount in the presence of 1 μM (MC1R) and 3 μM (MC3R, MC4R, MCSR) of NDP-α-MSH from each total binding amount was used as specific binding amounts of ^125I-NDP-α-MSH. The degree to which the ^125I-NDP-α-MSH specific binding was inhibited by the agonist diluted at each step concentration was measured. IC50 was expressed as the concentration of each agonist that inhibited specific binding of 50% of ^125I-NDP-α-MSH.
# CYP2D6 = CYP2D6 (Homo sapiens, UniProt P10635); test: CYP inhibition, recombinant enzyme, fluorescence; format: in vitro ADME; settings: recombinant CYP2D6, pH 7.4, 10 μM compound, 30 min pre-incubation, read-out: CYP inhibition (%) at 10 μM, 2D6
# Chain of CYP2D6 (P10635 whole entry): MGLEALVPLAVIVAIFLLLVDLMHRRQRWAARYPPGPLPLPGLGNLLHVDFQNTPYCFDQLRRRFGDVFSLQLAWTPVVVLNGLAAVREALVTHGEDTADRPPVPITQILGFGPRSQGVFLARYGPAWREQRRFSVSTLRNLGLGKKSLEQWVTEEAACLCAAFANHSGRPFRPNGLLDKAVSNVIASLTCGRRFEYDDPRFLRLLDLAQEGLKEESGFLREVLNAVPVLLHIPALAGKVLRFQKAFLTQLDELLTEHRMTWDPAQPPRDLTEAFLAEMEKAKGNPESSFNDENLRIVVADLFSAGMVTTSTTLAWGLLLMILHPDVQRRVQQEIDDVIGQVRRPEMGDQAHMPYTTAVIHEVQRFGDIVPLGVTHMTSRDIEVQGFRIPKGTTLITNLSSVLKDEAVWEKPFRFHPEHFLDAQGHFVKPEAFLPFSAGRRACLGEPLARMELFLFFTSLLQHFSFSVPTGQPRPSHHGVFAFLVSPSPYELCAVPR
# Experimental: (§1) The following Table 8 was referred for the use of a probe substrate, positive control, and isozyme and measurement conditions with respect to the measurement of the inhibitory ability of each substance. [table] […] The buffer spiked with experimental compound was mixed with the same volume of CYP isozyme prep solution so that the final concentration was 10 μM, followed by pre-warming for 10 minutes in a 37° C. fluorescence plate-reader. Each well NRS solution (NADPH Regeneration System: 0.22 mM β-NADP, 2.8 mM glucose-6-phosphate, and 0.6 units/mL of glucose-6-phosphate dehydrogenase) was added, followed by pre-incubation for 30 minutes. Thereafter, the reaction was initiated by adding the substrate to the well subjected to pre-incubation and monitored at intervals of one minute at the measurement wavelength for each substrate for 30 minutes. The measured values obtained from the positive control and the compound of Example 1 were compared with the fluorescence intensity of a negative control (no inhibition or compound) to confirm the inhibitory ability of each compound against isozyme. Inhibitory activity (%) was expressed based on the following criteria: […]
# CYP2C19 = CYP2C19 (Homo sapiens, UniProt P33261); test: CYP inhibition, recombinant enzyme, fluorescence; format: in vitro ADME; settings: recombinant CYP2C19, pH 7.4, 10 μM compound, 30 min pre-incubation, read-out: CYP inhibition (%) at 10 μM, 2C19
# Chain of CYP2C19 (P33261 whole entry): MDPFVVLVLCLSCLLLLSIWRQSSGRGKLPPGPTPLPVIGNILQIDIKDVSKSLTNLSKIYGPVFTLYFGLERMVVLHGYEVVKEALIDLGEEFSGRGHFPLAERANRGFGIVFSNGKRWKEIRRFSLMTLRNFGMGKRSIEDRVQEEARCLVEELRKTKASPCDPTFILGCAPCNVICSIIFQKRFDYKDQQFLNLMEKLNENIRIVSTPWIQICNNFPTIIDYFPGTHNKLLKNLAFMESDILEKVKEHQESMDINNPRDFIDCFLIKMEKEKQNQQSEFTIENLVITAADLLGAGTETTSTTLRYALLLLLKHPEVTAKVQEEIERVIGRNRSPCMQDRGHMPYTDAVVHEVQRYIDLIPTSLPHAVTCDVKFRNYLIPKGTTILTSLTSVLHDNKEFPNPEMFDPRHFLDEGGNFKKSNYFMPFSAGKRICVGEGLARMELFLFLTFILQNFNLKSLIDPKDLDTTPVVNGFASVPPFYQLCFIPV
# Experimental: as §1
# CYP3A4 = CYP3A4 (Homo sapiens, UniProt P08684); test: CYP inhibition, recombinant enzyme, fluorescence; format: in vitro ADME; settings: recombinant CYP3A4, pH 7.4, 10 μM compound, 30 min pre-incubation, read-out: CYP inhibition (%) at 10 μM, 3A4
# Chain of CYP3A4 (P08684 whole entry): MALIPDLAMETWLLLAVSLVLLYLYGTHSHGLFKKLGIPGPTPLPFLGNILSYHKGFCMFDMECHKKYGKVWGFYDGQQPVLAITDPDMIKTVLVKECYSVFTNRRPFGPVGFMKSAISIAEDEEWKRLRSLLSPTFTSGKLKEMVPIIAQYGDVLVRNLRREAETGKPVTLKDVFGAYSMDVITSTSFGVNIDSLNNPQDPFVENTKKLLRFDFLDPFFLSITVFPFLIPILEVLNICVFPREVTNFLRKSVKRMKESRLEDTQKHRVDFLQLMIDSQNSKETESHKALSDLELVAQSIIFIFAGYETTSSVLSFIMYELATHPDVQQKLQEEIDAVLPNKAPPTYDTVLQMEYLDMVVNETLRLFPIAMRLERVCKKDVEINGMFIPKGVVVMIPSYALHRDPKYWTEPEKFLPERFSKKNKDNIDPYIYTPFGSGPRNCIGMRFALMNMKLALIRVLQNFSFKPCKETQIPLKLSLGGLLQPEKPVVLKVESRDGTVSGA
# Experimental: as §1
# [3] = brain, read-out: t1/2, Brain (converted)
# [4] = plasma, read-out: AUCinf, Plasma
# [5] = plasma, read-out: t1/2, Plasma (converted)
"Cmax, Brain ([2]; brain)","AUC(0-inf) ([2]; brain, read-out: AUCinf, Brain)","half-life [2, 3]",Cmax ([2]; plasma),"AUC(0-inf) [2, 4]","half-life [2, 5]",Kp [2],pKi (MC4R),"inhibition at 30 min, 10 µM (CYP2D6)","inhibition at 30 min, 10 µM (CYP2C19)","inhibition at 30 min, 10 µM (CYP3A4)",SMILES,"Difference in weight change rate to vehicle ([1]; Day 12, 10 mg/kg)","Difference in weight change rate to vehicle ([1]; Day 12, 30 mg/kg)"
20 ng/mL,222 ng·h/mL,6 h,205 ng/mL,565 ng·h/mL,2.7 h,0.39,5.85,–,–,–,"CC(=O)N(C1CCC(C)(C)CC1)[C@H]1C[C@@H](C(=O)N2CCOCC2)N(C(=O)[C@@H]2CN(C(C)(C)C)C[C@H]2c2ccc(F)cc2F)C1.Cl [Comparative Example 1 (A95), N-((3S,5S)-1-((3S,4R)-1-(tert-butyl)-4-(2,4-difluorophenyl)pyrrolidine-3-carbonyl)-5-(morpholine-4-carbonyl)pyrrolidin-3-yl)-N-(4,4-dimethylcyclohexyl)acetamide hydrochloride]",−4.8%,−4.0%
27.1 ng/mL,530 ng·h/mL,8 h,337 ng/mL,1650 ng·h/mL,2.6 h,0.32,6.44,< 50%,< 50%,< 50%,"CC(=O)N(C1CCC(C)(C)CC1)[C@H]1C[C@@H](C(=O)N2CCOCC2)N(C(=O)[C@@H]2CN(C(C)(C)C)C[C@H]2c2ccc(Cl)cc2)C1.Cl [Comparative Example 2 (A96), N-((3S,5S)-1-((3S,4R)-1-(tert-butyl)-4-(4-chlorophenyl)pyrrolidine-3-carbonyl)-5-(morpholine-4-carbonyl)pyrrolidin-3-yl)-N-(4,4-dimethylcyclohexyl)acetamide hydrochloride]",−0.2%,−7.1%
49.1 ng/mL,1500 ng·h/mL,19 h,232 ng/mL,2070 ng·h/mL,3.9 h,0.72,7.19,< 50%,< 50%,< 50%,"CC(C)C(=O)N([C@H]1C[C@@H](C(=O)N2CCOCC2)N(C(=O)[C@@H]2CN(C(C)(C)C)C[C@H]2c2ccc(Cl)cc2)C1)[C@H]1CC[C@@H](C)CC1.Cl [Example 1, N-((3S,5S)-1-((3S,4R)-1-(tert-butyl)-4-(4-chlorophenyl)pyrrolidine-3-carbonyl)-5-(morpholine-4-carbonyl)pyrrolidin-3-yl)-N-((1s,4R)-4-methylcyclohexyl)isobutyramide hydrochloride]",–,–

# — patent US20220289731A1, “MELANOCORTIN-4 RECEPTOR AGONISTS” (LG CHEM, LTD., priority 2019, published 2022)
